Experimental data from patent US9150555B2, “Amide derivative and use thereof” (Mitsubishi Tanabe Pharma Corporation, priority 2010, dated 2015).
Structures can show the parent of a compound that is named as a salt.

How the values were obtained:
hERG = hERG (Homo sapiens, UniProt Q12809); assay: Effects on hERG current (whole-cell clamping); conditions: human, HEK 293 cells that express hERG, pH 7.4, hERG inhibition rate (%) (1 μM), 1 μM; tail peak current; hERG-expressed HEK 293 cells
[1] = tested on: IL-17 production of mouse spleen cells stimulated by rm-IL-23; assay: Production of IL-17 induced when mouse spleen cells were stimulated by recombinant mouse interleukin-23 (rm-IL-23); format: cell-based; conditions: Mus musculus, 72 h, inhibition of IL-17 production, DBA/1J mouse spleen cells, rm-IL-23 1 nmol/L, ELISA
Protocol: Effect on Production of IL-17 Induced when Mouse Spleen Cells were Stimulated by Recombinant Mouse Interleukin-23 (rm-IL-23)
An RPMI1640 (Sigma-Aldrich) was used as a medium, to which penicillin G potassium (50 units/mL; Gibco), streptomycin (50 μg/mL; Gibco) and 2-mercaptoethanol (50 μmol/l; Sigma-Aldrich) were added, and then 10% of fetal calf serum (FCS; Cell Culture Technology) inactivated at 56° C. for 30 minutes was added and used in the Test. The test compound was dissolved in dimethylsulfoxide and diluted with 10% FCS-containing RPMI1640 medium to a desired concentration and used in the test. The spleens were aseptically taken out from 6-7 week-old male DBA/1J mice (Charles River Japan, Inc.) and a single cell suspension of spleen cells was prepared and hemolyzed by hypotonic treatment with a mixture of 0.83% aqueous solution of ammonium chloride and Tris-HCl buffer of pH 7.65 (9:1). A cell suspension prepared by 10% FCS-containing RPMI1640 medium was added to flat-bottomed 96 well microtestplate at 2×10^5 cells/well. Test compounds and rm-IL-23 (R&D systems) were diluted with a medium to 1 to 1,000 nmol/L, and 1 nmol/L of the final concentration respectively, which were added and cultured at 37° C., 5% carbon dioxide and 95% air for 72 hours. After completion of the culture, culture supernatant was sampled and an amount of IL-17 production was determined by ELISA method. After sampling the supernatant, WST-8 (Seikagaku Corporation) was added at 10 μl/well and cultured at 37° C., 5% carbon dioxide and 95% air for 4 hours. Then, absorbance (O.D.: Optical Density) at 450 nm was measured by a microplate reader and the value was adopted as an index of cell survivability. An inhibition rate (%) was calculated according to the following formula on the basis of an average of an amount of IL-17 production and a O.D. values of the well containing a test compound of each concentration.
Based on the dose-response curve obtained by plotting the inhibition rate in the longitudinal axis and concentration in the horizontal axis, the concentration of the compound which inhibits the level to 50% of the value of the control group (IC50; nmol/L) was determined by linear regression analysis. The results was shown in the next Table 1

Chain of hERG (Q12809 whole entry): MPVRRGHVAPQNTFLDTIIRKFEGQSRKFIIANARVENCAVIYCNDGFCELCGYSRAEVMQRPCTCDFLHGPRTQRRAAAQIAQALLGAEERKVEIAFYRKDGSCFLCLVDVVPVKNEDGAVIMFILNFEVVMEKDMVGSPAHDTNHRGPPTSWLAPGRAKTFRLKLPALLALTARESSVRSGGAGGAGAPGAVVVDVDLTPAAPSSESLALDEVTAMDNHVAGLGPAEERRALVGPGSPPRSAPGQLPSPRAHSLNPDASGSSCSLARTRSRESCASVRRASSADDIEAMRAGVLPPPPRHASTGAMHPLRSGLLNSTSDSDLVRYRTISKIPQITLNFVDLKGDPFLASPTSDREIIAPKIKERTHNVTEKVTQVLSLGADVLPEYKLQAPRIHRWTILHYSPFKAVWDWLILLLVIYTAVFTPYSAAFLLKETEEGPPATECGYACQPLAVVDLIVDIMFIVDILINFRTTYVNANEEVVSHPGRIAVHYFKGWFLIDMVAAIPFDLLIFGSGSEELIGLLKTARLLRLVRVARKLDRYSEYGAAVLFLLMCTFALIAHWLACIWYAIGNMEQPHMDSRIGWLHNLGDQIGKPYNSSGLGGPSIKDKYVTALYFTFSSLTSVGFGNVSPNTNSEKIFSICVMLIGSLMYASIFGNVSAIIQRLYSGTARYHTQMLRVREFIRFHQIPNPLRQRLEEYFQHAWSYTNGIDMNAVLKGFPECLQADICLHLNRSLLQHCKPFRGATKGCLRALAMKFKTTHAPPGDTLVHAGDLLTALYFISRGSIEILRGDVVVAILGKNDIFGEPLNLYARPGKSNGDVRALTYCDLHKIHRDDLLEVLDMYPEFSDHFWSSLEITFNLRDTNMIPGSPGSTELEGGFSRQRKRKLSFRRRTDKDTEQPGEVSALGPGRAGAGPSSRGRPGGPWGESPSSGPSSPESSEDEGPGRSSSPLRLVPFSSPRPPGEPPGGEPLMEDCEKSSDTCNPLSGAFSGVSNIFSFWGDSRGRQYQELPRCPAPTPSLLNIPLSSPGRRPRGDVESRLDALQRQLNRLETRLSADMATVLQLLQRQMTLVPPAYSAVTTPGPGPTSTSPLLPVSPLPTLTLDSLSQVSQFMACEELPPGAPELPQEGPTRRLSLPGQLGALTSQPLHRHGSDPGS

Compound | IC50 [1] [nM] | inhibition at 1 µM (hERG) [%]
Cc1c(C(=O)Nc2ccc([C@]3(C#N)CC[C@@H](N4CCOCC4)CC3)nc2)cnn1-c1ncc(Cl)cc1Cl [Example D7, N-{6-[r-1-Cyano-c-4-(morpholin-4-yl)cyclohexyl]pyridin-3-yl}-1-(3,5-dichloropyridin-2-yl)-5-methyl-1H-pyrazole-4-carboxamide hydrochloric acid salt] | 208 | 24.7
Cc1c(C(=O)Nc2ccc([C@]3(C#N)CC[C@@H](N4CCC(O)C4)CC3)nc2)cnn1-c1ccc(C(F)(F)F)cn1 (some centres unmarked) [Example D13, N-{6-[r-1-Cyano-c-4-(3-hydroxypyrrolidin-1-yl)cyclohexyl]pyridin-3-yl}-5-methyl-1-[5-(trifluoromethyl)pyridin-2-yl]-1H-pyrazole-4-carboxamide] | 154 | 22
CO[C@H]1CC[C@](C#N)(c2ccc(NC(=O)c3cnn(-c4ccc(C)cc4)c3C)cn2)CC1 [Example D18, N-{6-[r-1-Cyano-c-4-methoxycyclohexyl]pyridin-3-yl}-5-methyl-1-(4-methylphenyl)-1H-pyrazole-4-carboxamide] | 251 | 7.2
Cc1cc(NC(=O)c2cnn(-c3ncc(Cl)cc3F)c2C)cnc1C1=CCC(N2CCOCC2)CC1 (centres unmarked) [Example D19, 1-[5-Chloro-3-fluoropyridin-2-yl]-5-methyl-N-{5-methyl-6-[4-(morpholin-4-yl)cyclohex-1-en-1-yl]pyridin-3-yl}-1H-pyrazole-4-carboxamide] | 92 | 35.1
Cc1cc(NC(=O)c2cnn(-c3ccc(C(F)(F)F)cn3)c2C)cnc1C1=CC[C@H](N2CCOCC2)CC1 [Example D21, (R)-5-Methyl-N-{5-methyl-6-[4-(morpholin-4-yl)cyclohex-1-en-1-yl]pyridin-3-yl}-1-[5-(trifluoromethyl)pyridin-2-yl]-1H-pyrazole-4-carboxamide] | 39.5 | 14.3
Cc1cc(NC(=O)c2cnn(-c3ccc(C(F)(F)F)cn3)c2C)cnc1C1=CCC(O)CC1 (centres unmarked) [Example D23, N-[6-(4-Hydroxycyclohex-1-en-1-yl)-5-methylpyridin-3-yl]-5-methyl-1-[5-(trifluoromethyl)-pyridin-2-yl]-1H-pyrazole-4-carboxamide] | 105 | 20.2
Cc1cc(NC(=O)c2cnn(-c3ncc(C(F)(F)F)cc3F)c2C)cnc1C1=CCC(N2CCOCC2)CC1 (centres unmarked) [Example D24, 1-[3-Fluoro-5-(trifluoromethyl)pyridin-2-yl]-5-methyl-N-{5-methyl-6-[4-(morpholin-4-yl)cyclohex-1-en-1-yl]pyridin-3-yl}-1H-pyrazole-4-carboxamide mesylate] | 40.3 | 20.9
Cc1c(C(=O)Nc2ccc([C@]3(C#N)CC[C@@H](N4CCOCC4)CC3)nc2)cnn1-c1ccc(C(C)C)cn1 [Example D26, N-{6-[r-1-Cyano-c-4-(morpholin-4-yl)cyclohexyl]pyridin-3-yl}-1-(5-isopropylpyridin-2-yl)-5-methyl-1H-pyrazole-4-carboxamide mesylate] | 125 | 26.4
Cc1c(C(=O)Nc2ccc([C@]3(O)CC[C@@H](N4CCOCC4)CC3)nc2)cnn1-c1ccc(C(F)(F)F)cc1 [Example D53] | 169 | 25.1
Cc1c(C(=O)Nc2ccc([C@H]3CC[C@H](N4CCOCC4)CC3)nc2)cnn1-c1ncc(C2CC2)cc1F [Example D65] | 139 | 5.5
Cc1c(C(=O)Nc2ccc([C@]3(C#N)CC[C@@H](N4CCOCC4)CC3)nc2)cnn1-c1ccc(C(C)(C)C)cc1 [Example D88] | 52.6 | 43
Cc1c(C(=O)Nc2ccc([C@]3(C#N)CC[C@@H](N4CCOCC4)CC3)nc2)cnn1-c1ccc(F)cc1 [Example D89] | 183 | 44.4
COc1cc(NC(=O)c2cnn(-c3ccc(C(F)(F)F)cn3)c2C)cnc1C1=CCC(N(C)C(=O)C(C)(C)C)CC1 (centres unmarked) [Example K69, N-(6-{4-[N-(2,2-Dimethylpropion-1-yl)-N-methylamino]cyclohex-1-en-1-yl}-5-methoxypyridin-3-yl)-5-methyl-1-[5-(trifluoromethyl)pyridin-2-yl]-1H-pyrazole-4-carboxamide] |  | 1.3

Continued by falling IC50 [1], values first:

IC50 [1] [nM] | Compound | inhibition at 1 µM (hERG) [%]
212 | Cc1c(C(=O)Nc2ccc([C@]3(C#N)CC[C@@H](N4CCOCC4)CC3)nc2)cnn1-c1ccc(C(C)(C)C)cn1 [Example D104] | 13.8
207 | Cc1c(C(=O)Nc2ccc([C@H]3CC[C@H](N4CCOCC4)CC3)nc2)cnn1-c1ccc(C(F)F)cn1 [Example D63] | 40.4
162 | Cc1c(C(=O)Nc2ccc([C@]3(C#N)CC[C@@H](N4CCOCC4)CC3)nc2)cnn1-c1ncc(C(F)(F)F)cc1F [Example D14, N-{6-[r-1-Cyano-c-4-(morpholin-4-yl)cyclohexyl]pyridin-3-yl}-1-[3-fluoro-5-(trifluoromethyl)pyridin-2-yl]-5-methyl-1H-pyrazole-4-carboxamide] | 6.4
160 | Cc1c(C(=O)Nc2ccc([C@H]3CC[C@H](N4CCOCC4)CC3)nc2)cnn1-c1ccc(C2CC2)cn1 [Example D64] | 27.9
148 | Cc1cc(NC(=O)c2cnn(-c3ncc(C(F)(F)F)cc3F)c2C)cnc1C1=CCC(O)CC1 (centres unmarked) [Example D25, 1-[3-Fluoro-5-(trifluoromethyl)pyridin-2-yl]-5-methyl-N-[5-methyl-6-(4-hydroxycyclohex-1-en-1-yl)pyridin-3-yl]-1H-pyrazole-4-carboxamide] | 4.2
119 | Cc1c(C(=O)Nc2ccc(C3=CCC(N4CCOCC4)CC3)nc2)cnn1-c1ccc(C2CC2)cn1 (centres unmarked) [Example D5, 1-(5-Cyclopropylpyridin-2-yl)-5-methyl-N-{6-[4-(morpholin-4-yl)cyclohex-1-en-1-yl]pyridin-3-yl}-1H-pyrazole-4-carboxamide mesylate] | 15.1
86.9 | Cc1c(C(=O)Nc2ccc(C3(C#N)CCC4(CC3)OCCO4)nc2)cnn1-c1ccc(Br)cn1 [Example D29] | 27.7
86.3 | Cc1cc(NC(=O)c2cnn(-c3ncc(C(F)(F)F)cc3C)c2C)cnc1C1=CCC(N2CCOCC2)CC1 (centres unmarked) [Example D188] | 40
78.9 | Cc1c(C(=O)Nc2ccc([C@]3(C#N)CC[C@@H](N4CCOCC4)CC3)nc2)cnn1-c1ccc(C(F)(F)F)cn1 [Example D1, N-{6-[r-1-Cyano-c-4-(morpholin-4-yl)cyclohexyl]pyridin-3-yl}-5-methyl-1-[5-(trifluoromethyl)pyridin-2-yl]-1H-pyrazole-4-carboxamide hydrochloride] | 22.6
66 | Cc1cc(NC(=O)c2cnn(-c3ncc(C4CC4)cc3F)c2C)cnc1C1=CCC(N2CCOCC2)CC1 (centres unmarked) [Example D177] | 13
63.3 | Cc1c(C(=O)Nc2ccc([C@H]3CC[C@H](N4CCOCC4)CC3)nc2)cnn1-c1ccc(C(F)(F)F)cn1 [Example D6, trans-5-Methyl-N-{6-[4-(morpholin-4-yl)cyclohexyl]pyridin-3-yl}-1-[5-(trifluoromethyl)-pyridin-2-yl]-1H-pyrazole-4-carboxamide mesylate] | 24.5
62.5 | Cc1c(C(=O)Nc2ccc(C3=CCC(N4CCOCC4)CC3)nc2)cnn1-c1ccc(C(F)(F)F)cc1 (centres unmarked) [Example D71] | 16.5
55.1 | Cc1ccc(-n2ccc(C(=O)Nc3ccc(C4(C#N)CCC5(CC4)OCCO5)nc3)c2)cc1C [Example D153] | 47.6
49.8 | Cc1cc(NC(=O)c2cnn(-c3ncc(C(F)(F)F)cc3Cl)c2C)cnc1C1=CCC(N2CCOCC2)CC1 (centres unmarked) [Example D175] | 31.7
44 | Cc1c(C(=O)Nc2ccc(C3CCC4(CC3)OCCO4)nc2)cnn1-c1ccc(C(C)(C)C)cc1 [Example D165] | 8.9
36.2 | Cc1cc(NC(=O)c2cnn(-c3ccc(C(F)(F)F)cn3)c2C)cnc1C1=CC[C@@H](N2CCOCC2)CC1 [Example D22, (S)-5-Methyl-N-{5-methyl-6-[4-(morpholin-4-yl)cyclohex-1-en-1-yl]pyridin-3-yl}-1-[5-(trifluoromethyl)pyridin-2-yl]-1H-pyrazole-4-carboxamide] | 31
32.8 | Cc1c(C(=O)Nc2ccc(C3(C#N)CCC4(CC3)OCCO4)nc2)cnn1-c1ccc(C(F)(F)F)cn1 [Example D41] | 26.4
